Results reported in ChEMBL document CHEMBL5465560, “Selectivity Literature for EUbOPEN Chemogenomic Library” (2024).

What was measured:
[1] = target: T1, Activin receptor type-1B (Homo sapiens) (UniProt P36896); assay: Selectivity interaction (KinomeScan (DiscoverX)) EUB0001049a ACVR1B; conditions: at 1 µM
T1 sequence (whole entry): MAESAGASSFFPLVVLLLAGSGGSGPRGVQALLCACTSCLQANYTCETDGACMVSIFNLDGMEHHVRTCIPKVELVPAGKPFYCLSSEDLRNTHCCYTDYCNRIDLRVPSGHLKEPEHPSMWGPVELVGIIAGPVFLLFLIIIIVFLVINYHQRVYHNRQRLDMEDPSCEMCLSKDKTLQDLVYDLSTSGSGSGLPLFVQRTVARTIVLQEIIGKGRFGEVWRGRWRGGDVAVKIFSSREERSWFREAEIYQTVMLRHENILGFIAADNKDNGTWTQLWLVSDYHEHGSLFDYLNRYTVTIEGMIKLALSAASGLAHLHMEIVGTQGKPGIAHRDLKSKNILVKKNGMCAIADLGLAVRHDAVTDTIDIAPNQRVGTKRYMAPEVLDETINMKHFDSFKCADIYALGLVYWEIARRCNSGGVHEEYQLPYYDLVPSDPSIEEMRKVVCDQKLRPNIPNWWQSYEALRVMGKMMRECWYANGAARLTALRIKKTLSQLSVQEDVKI

[2] = target: Mitogen-activated protein kinase kinase kinase kinase 4 (Homo sapiens, UniProt O95819); assay: Selectivity interaction (KinomeScan (DiscoverX)) EUB0000666a MAP4K4; conditions: at 10 µM
Chain of Mitogen-activated protein kinase kinase kinase kinase 4 (O95819 2-1239 limits assumed): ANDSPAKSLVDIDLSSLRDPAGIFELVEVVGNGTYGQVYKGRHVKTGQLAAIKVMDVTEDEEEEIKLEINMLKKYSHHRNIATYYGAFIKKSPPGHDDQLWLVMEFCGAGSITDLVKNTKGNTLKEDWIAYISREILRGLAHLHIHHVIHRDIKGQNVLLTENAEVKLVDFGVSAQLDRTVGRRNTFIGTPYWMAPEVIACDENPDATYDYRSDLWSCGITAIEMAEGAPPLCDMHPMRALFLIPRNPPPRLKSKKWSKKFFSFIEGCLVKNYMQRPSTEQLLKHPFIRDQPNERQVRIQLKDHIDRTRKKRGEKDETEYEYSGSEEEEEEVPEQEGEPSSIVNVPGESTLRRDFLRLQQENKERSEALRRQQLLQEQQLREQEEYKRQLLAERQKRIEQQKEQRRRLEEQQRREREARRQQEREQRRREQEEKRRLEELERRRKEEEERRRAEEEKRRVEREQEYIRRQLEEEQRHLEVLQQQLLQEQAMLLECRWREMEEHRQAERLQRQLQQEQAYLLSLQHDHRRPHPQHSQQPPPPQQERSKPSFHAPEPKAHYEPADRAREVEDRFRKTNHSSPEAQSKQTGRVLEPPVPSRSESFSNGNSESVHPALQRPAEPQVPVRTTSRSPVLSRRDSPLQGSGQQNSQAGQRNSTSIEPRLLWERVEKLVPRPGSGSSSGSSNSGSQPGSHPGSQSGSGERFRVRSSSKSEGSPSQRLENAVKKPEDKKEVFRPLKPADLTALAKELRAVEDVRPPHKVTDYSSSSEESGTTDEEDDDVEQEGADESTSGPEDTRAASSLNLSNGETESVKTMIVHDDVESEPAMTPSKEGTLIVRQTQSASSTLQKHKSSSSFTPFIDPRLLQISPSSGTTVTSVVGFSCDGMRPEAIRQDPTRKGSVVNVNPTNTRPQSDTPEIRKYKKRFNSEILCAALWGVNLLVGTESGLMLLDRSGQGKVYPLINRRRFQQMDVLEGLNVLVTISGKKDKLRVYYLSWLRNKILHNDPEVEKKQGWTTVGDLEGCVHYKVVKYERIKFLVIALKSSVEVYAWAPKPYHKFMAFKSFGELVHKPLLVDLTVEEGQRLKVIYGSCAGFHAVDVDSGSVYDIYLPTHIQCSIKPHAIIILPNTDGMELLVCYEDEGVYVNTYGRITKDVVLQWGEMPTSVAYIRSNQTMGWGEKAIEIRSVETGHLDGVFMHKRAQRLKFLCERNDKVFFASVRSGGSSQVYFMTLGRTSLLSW

[3] = target: T2, G protein-coupled receptor kinase 3 (Homo sapiens) (UniProt P35626); assay: Selectivity interaction (KinomeScan (DiscoverX)) EUB0000229b ADRBK2; conditions: at 10 µM
T2 sequence (whole entry): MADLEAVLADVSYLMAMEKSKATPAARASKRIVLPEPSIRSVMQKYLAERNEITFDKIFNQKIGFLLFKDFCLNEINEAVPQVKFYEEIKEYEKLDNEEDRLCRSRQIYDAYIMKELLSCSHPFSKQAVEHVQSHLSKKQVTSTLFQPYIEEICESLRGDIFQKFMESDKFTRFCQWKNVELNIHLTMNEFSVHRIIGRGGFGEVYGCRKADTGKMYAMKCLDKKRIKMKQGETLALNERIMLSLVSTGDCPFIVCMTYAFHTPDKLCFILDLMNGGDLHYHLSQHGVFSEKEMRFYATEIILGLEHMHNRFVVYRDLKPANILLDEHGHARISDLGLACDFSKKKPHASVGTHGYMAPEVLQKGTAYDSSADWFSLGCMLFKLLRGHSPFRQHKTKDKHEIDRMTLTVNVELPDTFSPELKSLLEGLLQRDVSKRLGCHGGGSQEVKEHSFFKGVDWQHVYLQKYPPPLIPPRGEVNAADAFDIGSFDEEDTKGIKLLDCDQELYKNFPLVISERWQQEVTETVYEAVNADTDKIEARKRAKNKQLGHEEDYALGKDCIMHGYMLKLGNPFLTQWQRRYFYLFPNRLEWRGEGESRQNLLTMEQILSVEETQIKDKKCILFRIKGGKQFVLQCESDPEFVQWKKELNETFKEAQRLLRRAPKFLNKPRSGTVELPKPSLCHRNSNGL

[4] = target: T3, Dual specificity tyrosine-phosphorylation-regulated kinase 2 (Homo sapiens) (UniProt Q92630); assay: Selectivity interaction (KinomeScan (DiscoverX)) EUB0000618a DYRK2; conditions: at 10 µM
T3 sequence (whole entry): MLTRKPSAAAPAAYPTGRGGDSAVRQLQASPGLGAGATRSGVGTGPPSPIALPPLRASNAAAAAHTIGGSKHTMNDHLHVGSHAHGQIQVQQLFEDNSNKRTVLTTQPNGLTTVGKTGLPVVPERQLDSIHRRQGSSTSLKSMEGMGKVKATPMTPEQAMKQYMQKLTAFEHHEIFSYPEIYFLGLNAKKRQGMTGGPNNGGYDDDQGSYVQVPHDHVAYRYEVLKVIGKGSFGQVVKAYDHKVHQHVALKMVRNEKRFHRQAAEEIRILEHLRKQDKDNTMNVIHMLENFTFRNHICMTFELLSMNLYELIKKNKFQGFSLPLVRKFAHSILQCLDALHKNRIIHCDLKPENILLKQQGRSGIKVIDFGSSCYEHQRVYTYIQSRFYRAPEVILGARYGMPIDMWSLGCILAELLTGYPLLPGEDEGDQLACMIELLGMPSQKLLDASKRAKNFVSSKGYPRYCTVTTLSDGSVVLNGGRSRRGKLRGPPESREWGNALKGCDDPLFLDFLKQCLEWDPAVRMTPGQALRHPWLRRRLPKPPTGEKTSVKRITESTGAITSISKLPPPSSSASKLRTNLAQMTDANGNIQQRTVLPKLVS

[5] = target: T4, Serine/threonine-protein kinase Nek11 (Homo sapiens) (UniProt Q8NG66); assay: Selectivity interaction (Upstate Kinase Profiler service (Millipore)) EUB0000056c NEK11; conditions: at 1 µM
T4 sequence (whole entry): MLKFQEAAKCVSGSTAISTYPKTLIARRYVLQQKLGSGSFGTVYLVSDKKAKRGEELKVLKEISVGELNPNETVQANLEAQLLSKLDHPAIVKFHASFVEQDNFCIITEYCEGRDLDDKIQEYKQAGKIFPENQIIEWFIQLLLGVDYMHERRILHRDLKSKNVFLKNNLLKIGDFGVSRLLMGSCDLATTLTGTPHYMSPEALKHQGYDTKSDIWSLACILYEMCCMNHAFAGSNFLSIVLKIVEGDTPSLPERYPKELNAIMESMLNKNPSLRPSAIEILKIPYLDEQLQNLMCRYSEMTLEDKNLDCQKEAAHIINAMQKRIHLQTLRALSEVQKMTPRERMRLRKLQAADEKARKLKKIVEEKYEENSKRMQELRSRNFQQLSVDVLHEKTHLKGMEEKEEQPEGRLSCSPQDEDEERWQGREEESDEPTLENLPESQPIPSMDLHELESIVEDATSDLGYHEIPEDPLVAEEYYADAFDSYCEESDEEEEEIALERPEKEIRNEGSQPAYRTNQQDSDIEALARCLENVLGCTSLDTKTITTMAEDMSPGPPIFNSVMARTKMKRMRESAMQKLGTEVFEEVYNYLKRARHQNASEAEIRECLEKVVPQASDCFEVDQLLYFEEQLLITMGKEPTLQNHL

Compound: COc1cc(Nc2nc(C)cc(-c3cnn4nc(OC)ccc34)n2)cc(C(F)(F)F)c1
- % of control [1]: 100%

Compound: O=C(NOC[C@H](O)CO)c1ccc(F)c(F)c1Nc1ccc(I)cc1F
- % of control [2]: 69%

Compound: COc1cc(N(C)c2ccnc3ccc(C(F)(F)F)cc23)cc(OC)c1OC
- % binding [3]: 43%

Compound: O[C@H]1CC[C@H](Nc2ncc3nc(Nc4c(F)cc(F)cc4F)n([C@H]4CCOC4)c3n2)CC1
- % of control [4]: 100%

Compound: Cc1ccc(-c2ccc3c(ccc4sc5c(c43)NC[C@@H](C)NC5=O)n2)cn1
- % of inhibition [5]: -11%
